Positions count from the first letter of the chain named.
Columns and labels:
[1] = target: T1, eugenol synthase (EGS, EGS1) (Ocimum basilicum, UniProt Q15GI4, K132Q); assay: X-ray co-crystal structure ([…] Å); type: binding
T1 sequence (Q15GI4 1-314 K132Q): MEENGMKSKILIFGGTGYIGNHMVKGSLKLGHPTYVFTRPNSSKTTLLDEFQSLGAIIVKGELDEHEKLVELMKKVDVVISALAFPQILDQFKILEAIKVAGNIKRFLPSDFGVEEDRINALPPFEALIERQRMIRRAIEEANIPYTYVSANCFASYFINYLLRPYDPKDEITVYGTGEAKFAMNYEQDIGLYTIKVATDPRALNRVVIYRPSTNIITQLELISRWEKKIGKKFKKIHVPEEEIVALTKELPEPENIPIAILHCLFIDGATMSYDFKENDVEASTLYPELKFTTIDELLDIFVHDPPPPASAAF

[2] = target: T2, eugenol synthase (EGS, EGS1) (Ocimum basilicum, UniProt Q15GI4, K132R); assay: X-ray crystallography (preliminary structural analysis); type: binding
T2 sequence (Q15GI4 1-314 K132R): T1 sequence (Q15GI4 1-314 K132Q) with Q132R

[3] = target: T3, eugenol synthase (EGS, EGS1) (Ocimum basilicum, UniProt Q15GI4); assay: X-ray co-crystal structure ([…] Å, soaking); enzyme inhibition kinetics (GC/MS); type: biochemical
T3 sequence (Q15GI4 whole entry): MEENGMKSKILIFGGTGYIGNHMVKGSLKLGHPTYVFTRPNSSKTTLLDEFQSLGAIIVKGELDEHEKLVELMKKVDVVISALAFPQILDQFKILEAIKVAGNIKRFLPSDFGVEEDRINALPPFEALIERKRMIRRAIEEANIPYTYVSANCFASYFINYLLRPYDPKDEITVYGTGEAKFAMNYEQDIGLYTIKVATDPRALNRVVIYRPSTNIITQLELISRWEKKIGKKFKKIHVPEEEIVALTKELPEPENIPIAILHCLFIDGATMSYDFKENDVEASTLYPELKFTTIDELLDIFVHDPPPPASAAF

[4] = target: T4, eugenol synthase (EGS, EGS1) (Ocimum basilicum, UniProt Q15GI4, K132A); assay: X-ray crystallography (no deposition stated); type: binding
T4 sequence (Q15GI4 1-314 K132A): T1 sequence (Q15GI4 1-314 K132Q) with Q132A

[5] = target: T3, eugenol synthase (EGS, EGS1); assay: X-ray crystal structure ([…] Å monoclinic; also 2QX7 orthorhombic); type: binding
[6] = target: T3, eugenol synthase (EGS, EGS1); assay: X-ray crystal structure ([…] Å); type: binding
[7] = substrate: COc1cc(/C=C/COC(C)=O)ccc1O; assay: enzyme kinetics by GC/MS (Km); crystal soaking gave no stable complex; type: biochemical, Ocimum basilicum; conditions: NADPH active site (binding mode modeled only)

CCOC(=O)[C@H]1C[C@@H]1c1ccc(O)c(OC)c1 [EMDF, (1S,2S)-ethyl 2-(4-hydroxy-3-methoxyphenyl) cyclo-propanecarboxylate]
X-ray co-crystal structure (1.8 Å) [1]: for the Ala132 and Gln132 mutants, both NADP^+ and EMDF binding are little affected (Figure 5C) | X-ray crystallography (preliminary structural analysis) [2]: EMDF-bound forms of the Lys132Arg mutant shows that the Arg132 guanidinium moiety is displaced slightly by the EMDF guaiacol ring | Ki [3]: 800 µM | X-ray crystallography (no deposition stated) [4]: Crystallographic analyses confirmed that for the Ala132 and Gln132 mutants, both NADP^+ and EMDF binding are little affected

NC(=O)c1ccc[n+]([C@@H]2O[C@H](COP(=O)(O)OP(=O)(O)OC[C@H]3O[C@@H](n4cnc5c(N)ncnc54)[C@H](OP(=O)(O)O)[C@@H]3O)[C@@H](O)[C@H]2O)c1 [NADP+]
X-ray crystal structure (1.6 Å monoclinic; also 2QX7 orthorhombic) [5]: The structures of EGS complexed with NADP^+ or NADPH provide the first structural characterization of nicotinamide-cofactor binding

NC(=O)C1=CN([C@@H]2O[C@H](COP(=O)(O)OP(=O)(O)OC[C@H]3O[C@@H](n4cnc5c(N)ncnc54)[C@H](OP(=O)(O)O)[C@@H]3O)[C@@H](O)[C@H]2O)C=CC1 [NADPH]
X-ray crystal structure (1.6 Å) [6]: Structural differences between the NADP^+ and NADPH complexes of EGS are small, and center around the nicotinamide ring

B1: eugenol synthase (EGS, EGS1) (Ocimum basilicum) (protein)
chain: T1 sequence (Q15GI4 1-314 K132Q) with Q132K
Km [7]: 570 µM

From publication PMC1991597, “Structure and Reaction Mechanism of Basil Eugenol Synthase” (PLoS ONE, 2007)
